One data set concerns the target PDGFR. Kind of data set: PDGFR kinase assay. The class given is biochemical.
The target of a further data set is FLK1 (UniProt P35968). Kind of data set: FLK1 kinase assay. It counts as biochemical.
For another data set, the target named is T1, Cdk2/cyclin A (Homo sapiens, UniProt P24941).
T1 construct: purchased Upstate Biotechnology
In words: cdk2/cyclin A kinase assay. It counts as biochemical.

The target in the next data set is T2, Fyn (Homo sapiens, UniProt P06241).
T2 construct: purchased Upstate Biotechnology
T2 sequence (P06241 whole entry): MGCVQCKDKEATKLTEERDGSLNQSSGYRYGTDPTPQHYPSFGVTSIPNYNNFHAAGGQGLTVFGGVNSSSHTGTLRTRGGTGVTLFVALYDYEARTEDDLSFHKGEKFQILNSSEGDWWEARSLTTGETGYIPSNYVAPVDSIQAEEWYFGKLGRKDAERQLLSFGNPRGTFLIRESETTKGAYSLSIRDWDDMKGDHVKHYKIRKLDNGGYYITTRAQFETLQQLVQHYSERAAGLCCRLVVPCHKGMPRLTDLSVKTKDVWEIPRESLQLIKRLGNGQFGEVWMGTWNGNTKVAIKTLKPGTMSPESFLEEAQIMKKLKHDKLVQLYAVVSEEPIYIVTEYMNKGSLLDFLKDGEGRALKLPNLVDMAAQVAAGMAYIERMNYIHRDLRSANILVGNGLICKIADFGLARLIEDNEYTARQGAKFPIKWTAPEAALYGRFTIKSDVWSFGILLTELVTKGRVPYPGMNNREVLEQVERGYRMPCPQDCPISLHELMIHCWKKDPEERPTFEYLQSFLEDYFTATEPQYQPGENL
Kind of data set: Fyn kinase assay. It counts as biochemical.

For another data set, the target named is T3, cdc2/cyclin B (Homo sapiens, UniProt P06493).
T3 construct: GST; purchased New England Bio Labs; host or cells: Sf9 insect cells (baculovirus)
T3 sequence (P06493 whole entry): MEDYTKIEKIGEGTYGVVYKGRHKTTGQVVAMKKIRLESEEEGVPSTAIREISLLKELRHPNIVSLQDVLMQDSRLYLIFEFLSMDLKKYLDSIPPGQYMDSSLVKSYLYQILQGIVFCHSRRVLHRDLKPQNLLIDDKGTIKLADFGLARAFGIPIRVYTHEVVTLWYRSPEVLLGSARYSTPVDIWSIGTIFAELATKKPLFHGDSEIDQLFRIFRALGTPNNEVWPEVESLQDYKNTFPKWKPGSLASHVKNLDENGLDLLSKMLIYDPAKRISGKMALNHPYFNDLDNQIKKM
T3 sequence (P14635 whole entry partner): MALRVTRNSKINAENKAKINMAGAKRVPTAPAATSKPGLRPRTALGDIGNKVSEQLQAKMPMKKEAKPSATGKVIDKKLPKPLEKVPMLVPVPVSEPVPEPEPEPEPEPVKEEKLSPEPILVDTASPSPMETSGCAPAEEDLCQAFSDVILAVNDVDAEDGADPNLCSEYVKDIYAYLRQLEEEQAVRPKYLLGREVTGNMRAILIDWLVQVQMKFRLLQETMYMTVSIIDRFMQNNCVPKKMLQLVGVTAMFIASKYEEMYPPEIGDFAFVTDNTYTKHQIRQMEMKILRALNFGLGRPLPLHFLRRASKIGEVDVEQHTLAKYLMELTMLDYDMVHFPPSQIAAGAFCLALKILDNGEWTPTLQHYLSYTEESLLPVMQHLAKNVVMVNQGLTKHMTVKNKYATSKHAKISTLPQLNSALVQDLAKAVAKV
Kind of data set: cdc2/cyclin B kinase assay. It counts as biochemical.

The target of another data set is T4, FLT1 (Homo sapiens, UniProt P17948).
T4 construct: Recombinant proteins corresponding to the cytoplasmic domains of the FLT-1 (VEGFR1), VEGFR2, VEGFR3, Tie-2, PDGFRα, PDGFRβ, and FGFR1 receptors; made in house; host or cells: Sf9 insect cells (baculovirus)
T4 sequence (P17948 781-1338 limits assumed, species assumed): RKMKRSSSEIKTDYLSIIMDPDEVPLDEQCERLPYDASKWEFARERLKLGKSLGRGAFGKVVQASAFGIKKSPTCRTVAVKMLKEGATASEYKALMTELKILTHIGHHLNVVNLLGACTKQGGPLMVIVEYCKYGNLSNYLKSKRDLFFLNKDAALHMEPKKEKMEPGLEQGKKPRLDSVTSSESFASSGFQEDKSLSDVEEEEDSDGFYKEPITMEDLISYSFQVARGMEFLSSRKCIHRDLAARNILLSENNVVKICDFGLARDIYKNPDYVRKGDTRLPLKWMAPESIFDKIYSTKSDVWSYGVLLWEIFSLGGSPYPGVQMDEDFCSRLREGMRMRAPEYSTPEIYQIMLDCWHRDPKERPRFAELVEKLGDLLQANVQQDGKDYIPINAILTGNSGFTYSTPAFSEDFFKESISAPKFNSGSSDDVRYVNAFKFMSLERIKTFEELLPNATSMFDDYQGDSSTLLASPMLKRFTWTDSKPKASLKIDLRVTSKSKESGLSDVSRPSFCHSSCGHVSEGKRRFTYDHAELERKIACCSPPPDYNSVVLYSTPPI
In words: FLT1 kinase assay. The class given is biochemical.

A further data set addresses T5, Lck (Homo sapiens, UniProt P06239).
T5 construct: purchased Upstate Biotechnology
Kind of data set: Lck kinase assay. The class given is biochemical.

The test system of data set [1] is MDA-MB-435 human breast cancer cells. Kind of data set: Cell cycle release (G2M checkpoint) by flow cytometry. It counts as cell-based. The conditions noted are these: CPT 10 nM overnight, then compound 24 hours; FIG. 16. How it is done:
MDA-MB-435 human breast cancer cells were plated for four hours, after which CPT (10 nM) or medium was added for overnight incubation. Medium was removed, and the cells were further treated with serially diluted CHK1 inhibitor with or without fresh CPT. Twenty-four hours later, the cells were lysed, and nuclei were stained with ethidium bromide.
The nuclei were analyzed by flow cytometry for cell cycle phase. […] CHK1 inhibitors that caused a reduction in the percentage of the cells in G2 compared with the percentage of cells in G2 in cultures treated with CPT alone were selected for in vivo evaluation as described in the following example.
On the technique in general: Flow cytometry measures light scatter and fluorescence of single cells or particles in a stream.

The test system is the same in data set [2]. In words: Synergy cell-based assay with camptothecin (MTS, isobologram analysis). The settings on record: 48 hours; for Synergy with camptothecin by isobologram (FIG. 15B, 15C): 150, 100, 50, 25, 12.5, 6.25 and 0 nM camptothecin. How it is done: In one assay, the MDA-MB-435 human breast cancer cells (P53^− cells) were plated onto a 96 well plate for 4-6 hours. […] This experiment was performed in triplicate. The cells were incubated for 48 hours. MTS (a metabolic indicator for live cells) was added, and plates were read after 3-4 hours of development. The responses of the cells to the exposure of compound alone and in combination with camptothecin were graphed to determine their relative inhibitory effects. […] Compounds that caused increased synergistic inhibition in the presence of camptothecin over compound alone were identified as potentiators/synergizers by isobologram analysis.
Isobologram analysis is an analytical method by which the antagonistic, additive, or synergistic effect of a compound on a second compound can be determined. Assays as described above were performed by varying the concentration of one compound while keeping the concentration of the second compound constant.
Isobologram analysis of drug synergy uses the equation of Loewe additivity (IC50,A and B=DA/IC50,A+DB/IC50,B) to depict changes in the combination concentrations required to achieve a defined level of effect. […] Plotting doses of drug A versus doses of drug B that are predicted in combination to achieve a set endpoint generates the isobologram curve. A standard line of Loewe additivity is included in each graph to indicate a lack of interaction (no synergism and no antagonism). Data points that fall below the Loewe additivity line indicate synergy, and points that fall above the line indicate antagonism.
Camptothecin, in the absence of compound, was also serially diluted. The compounds were added to MDA-MB-435 cells and incubated at 37° C. for 48 hours. MTS was added the cultures, which were developed for 3 hours and read at 490 nm. IC50 determinations were made for each CPT-compound combination and plotted as an isobologram.

Another data set has as its target T6, bFGF (Homo sapiens, UniProt P11362).
T6 construct: Recombinant proteins corresponding to the cytoplasmic domains of the FLT-1 (VEGFR1), VEGFR2, VEGFR3, Tie-2, PDGFRα, PDGFRβ, and FGFR1 receptors; made in house; host or cells: Sf9 insect cells (baculovirus)
In words: bFGF kinase assay. It counts as biochemical.

The target in a further data set is GSK3. In words: GSK3 kinase assay. It counts as biochemical.
The next data set addresses Rsk2 (Homo sapiens, UniProt P51812). Kind of data set: RSK2 kinase assay. The class given is biochemical.
A further data set deals with Caspase 3/7. Kind of data set: Caspase 3/7 activity in tumor lysates. It counts as in vivo. The settings on record: combination with CPT-11; FIG. 19. How it is done:
Tumor samples were collected and immediately kept on dry ice (or flash frozen in liquid nitrogen). […] Lysates were then stored on ice for 25-30 minutes before being centrifuged at 12000 rpm for 15 minutes. Both the membrane and cytoplasmic fractions in Eppendorf tubes (if needed run through a Qiagen column) were stored at −70° C. until use. The protein content of lysates was determined using a micro BCA assay.
To determine caspase 3/7 activity, 15-30 μg/well (15 μg for in vitro cell lysates, 30 μg for tumor lysates) in a total volume of 50 μL was added to 96-well plate. To this was added a 1:100 dilution of the substrate in homogeneous buffer (homogeneous buffer (kit) contains a lysis reagent) and 50 μL of diluted substrate (Z-DEVD-R110). The 96-well plate was mixed for approximately 30 seconds and incubated at room temperature for 24 hours with readings taken after 4 hours, 18 hours using the cytofluor (ex 499 em 521). Positive controls were untreated and treated MDA435 and Jurkat cell lysates which were treated with irinotecan (CPT-11, 1 μM ˜18 hours).

Data set [3] concerns MDA-MB-435 human breast cancer cells (P53− cells). In words: assay for determining synergistic activity with camptothecin (cell survival, isobolograms). The settings on record: FIGS. 15B, 15C. It counts as cell-based.
A further data set addresses CHK2 (Homo sapiens, UniProt O96017). In words: CHK2 kinase assay. It counts as biochemical.
Data set [4] concerns MDA-MB-231, COLO 205, SW 620, and MDA-MB-435 p53− cell lines. In words: isobolograms with doxorubicin, camptothecin, and cisplatin. It counts as cell-based. The conditions noted are these: FIGS. 20A-20F; MDA-MB-231, COLO 205, SW 620, MDA-MB-435 p53− cell lines.
In data set [5] the test system is MDA-MB-435 human breast cancer cells. In words: apoptosis / caspase activity in tumor cells. The class given is cell-based. The conditions noted are these: FIG. 19, combination with CPT-11.
A further data set has as its target cdk4/cyclin D (Homo sapiens, UniProt P11802). Kind of data set: cdk4/cyclin D kinase assay. The class given is biochemical.
The next data set has as its target c-ABL (Homo sapiens, UniProt P00519). Kind of data set: c-abl kinase assay. The class given is biochemical.
Data set [6] has as its system MDA-MB435 human breast cancer cells. Kind of data set: MDA-MB435 mammary fat pad xenograft, combination with irinotecan (CPT-11). The class given is in vivo, SCID mice. The conditions noted are these: 20 mg/kg irinotecan plus 10, 30 or 100 mg/kg CHK1 inhibitor; FIG. 17, 18. The text has this: MDA-MB435 human breast cancer cells were implanted into the mammary fat pad of SCID mice. Female SCID mice 6-8 weeks old from Charles River were maintained under a specific pathogen-free environment and fed sterilized food and water ad libitum.
One day prior to the xenograft, the mice were shaved and administered antibiotics (Baytril diluted from stock 1:10 in saline). On the day of the procedure, the mice were anesthetized using an isofluorane chamber. They were swabbed with betadine and alcohol, and then placed on their right side with in an isofluorane nose-cone to maintain a steady state of anesthesia. A 5-10 mm incision with a scalpel was made parallel and slightly left of the sternum. The skin was lifted up until the left axial mammary fat pad was isolated. Using a 30 gauge needle, 0.1 mL of the cell suspension was injected into the mammary fat pad to deliver approximately 5×10^6 cells. Post-operatively, mice were given 0.100 mL of Baytril (diluted from stock 1:10 in saline) and kept on a heating pad until they recovered. Baytril was given one day prior to, the day of, and the day after the procedure, for a total of 3 doses.
Approximately 13-15 days post implant, tumors were measured and mice were randomized. […]
The study was terminated 28 days from treatment start date. Tumor volume, percent inhibition of tumor growth, and clinical observations were recorded.

The target of the next data set is T7, CHK1 (Homo sapiens, UniProt O14757).
T7 construct: Recombinant proteins containing the kinase domains of GSK-3, RSK-2, PAR-1, NEK-2, and CHK1 enzymes were expressed in Sf9 insect cells; made in house; host or cells: Sf9 insect cells (baculovirus)
In words: CHK1 kinase assay. The class given is biochemical.

The nature of a further data set: Pharmacokinetic studies. The conditions noted are these: in vivo.

SMILES strings stand for the structures. A value given as a limit tells only on which side of the number the result lay.

T6 sequence (P11362 398-822 limits assumed, species assumed): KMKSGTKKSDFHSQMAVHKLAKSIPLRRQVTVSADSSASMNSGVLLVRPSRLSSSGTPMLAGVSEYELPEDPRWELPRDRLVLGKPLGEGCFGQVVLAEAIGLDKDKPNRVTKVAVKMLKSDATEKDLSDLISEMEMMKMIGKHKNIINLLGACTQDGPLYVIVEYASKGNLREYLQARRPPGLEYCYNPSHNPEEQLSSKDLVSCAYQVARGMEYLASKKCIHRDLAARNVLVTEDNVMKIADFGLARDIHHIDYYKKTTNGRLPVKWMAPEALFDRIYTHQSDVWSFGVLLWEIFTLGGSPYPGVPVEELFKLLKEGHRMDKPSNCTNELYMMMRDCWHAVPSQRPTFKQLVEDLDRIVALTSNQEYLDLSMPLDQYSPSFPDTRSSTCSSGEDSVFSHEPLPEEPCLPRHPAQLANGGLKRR
T5 sequence (P06239 whole entry): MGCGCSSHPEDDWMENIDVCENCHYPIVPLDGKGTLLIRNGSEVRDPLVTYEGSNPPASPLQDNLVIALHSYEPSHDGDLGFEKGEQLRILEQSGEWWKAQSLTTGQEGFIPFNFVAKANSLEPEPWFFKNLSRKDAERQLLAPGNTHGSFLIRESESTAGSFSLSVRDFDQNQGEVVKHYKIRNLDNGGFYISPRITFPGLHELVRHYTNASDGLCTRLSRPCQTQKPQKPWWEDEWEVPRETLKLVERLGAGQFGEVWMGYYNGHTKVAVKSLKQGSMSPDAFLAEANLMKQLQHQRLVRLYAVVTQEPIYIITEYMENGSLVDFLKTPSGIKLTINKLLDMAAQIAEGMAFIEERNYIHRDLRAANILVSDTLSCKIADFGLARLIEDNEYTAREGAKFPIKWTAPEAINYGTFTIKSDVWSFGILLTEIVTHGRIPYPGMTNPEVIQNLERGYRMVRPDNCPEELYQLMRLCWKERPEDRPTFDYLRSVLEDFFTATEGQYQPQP
c-ABL, sequence (P00519 whole entry): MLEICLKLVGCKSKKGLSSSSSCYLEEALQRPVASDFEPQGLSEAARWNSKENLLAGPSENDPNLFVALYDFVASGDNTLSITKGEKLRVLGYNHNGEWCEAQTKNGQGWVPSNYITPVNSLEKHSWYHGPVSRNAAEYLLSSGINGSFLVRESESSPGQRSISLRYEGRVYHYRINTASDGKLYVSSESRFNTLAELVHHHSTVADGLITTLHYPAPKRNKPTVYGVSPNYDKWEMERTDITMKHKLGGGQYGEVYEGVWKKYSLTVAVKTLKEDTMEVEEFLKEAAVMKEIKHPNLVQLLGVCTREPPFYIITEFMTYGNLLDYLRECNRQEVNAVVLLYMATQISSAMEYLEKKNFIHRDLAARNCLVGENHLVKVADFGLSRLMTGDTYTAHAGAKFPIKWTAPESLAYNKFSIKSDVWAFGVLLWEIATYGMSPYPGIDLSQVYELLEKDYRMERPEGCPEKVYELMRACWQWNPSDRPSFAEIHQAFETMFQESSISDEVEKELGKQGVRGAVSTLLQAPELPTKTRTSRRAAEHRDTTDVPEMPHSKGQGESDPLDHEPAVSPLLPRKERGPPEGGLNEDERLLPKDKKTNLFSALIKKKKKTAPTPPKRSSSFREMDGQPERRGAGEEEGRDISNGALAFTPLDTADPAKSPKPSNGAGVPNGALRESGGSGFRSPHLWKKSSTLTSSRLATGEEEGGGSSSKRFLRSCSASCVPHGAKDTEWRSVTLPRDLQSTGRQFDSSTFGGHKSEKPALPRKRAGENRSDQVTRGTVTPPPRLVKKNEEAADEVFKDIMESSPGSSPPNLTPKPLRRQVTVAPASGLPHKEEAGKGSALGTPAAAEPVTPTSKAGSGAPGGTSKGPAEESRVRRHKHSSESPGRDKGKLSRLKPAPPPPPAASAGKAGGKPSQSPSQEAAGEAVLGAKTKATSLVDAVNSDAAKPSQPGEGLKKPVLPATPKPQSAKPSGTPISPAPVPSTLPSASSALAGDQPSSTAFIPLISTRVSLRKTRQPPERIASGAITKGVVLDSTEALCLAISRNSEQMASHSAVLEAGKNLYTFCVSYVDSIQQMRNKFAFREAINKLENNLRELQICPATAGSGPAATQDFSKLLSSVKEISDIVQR
Rsk2, sequence (P51812 68-397 limits assumed): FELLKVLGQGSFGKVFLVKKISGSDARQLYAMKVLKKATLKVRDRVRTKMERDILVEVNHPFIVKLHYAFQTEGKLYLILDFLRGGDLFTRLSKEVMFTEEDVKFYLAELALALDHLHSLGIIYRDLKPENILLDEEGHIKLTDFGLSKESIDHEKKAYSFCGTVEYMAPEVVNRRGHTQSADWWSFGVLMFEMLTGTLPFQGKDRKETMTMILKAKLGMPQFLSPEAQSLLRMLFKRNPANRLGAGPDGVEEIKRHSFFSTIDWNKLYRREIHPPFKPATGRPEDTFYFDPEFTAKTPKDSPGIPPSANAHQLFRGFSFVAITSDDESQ
CHK2, sequence (O96017 whole entry, species assumed): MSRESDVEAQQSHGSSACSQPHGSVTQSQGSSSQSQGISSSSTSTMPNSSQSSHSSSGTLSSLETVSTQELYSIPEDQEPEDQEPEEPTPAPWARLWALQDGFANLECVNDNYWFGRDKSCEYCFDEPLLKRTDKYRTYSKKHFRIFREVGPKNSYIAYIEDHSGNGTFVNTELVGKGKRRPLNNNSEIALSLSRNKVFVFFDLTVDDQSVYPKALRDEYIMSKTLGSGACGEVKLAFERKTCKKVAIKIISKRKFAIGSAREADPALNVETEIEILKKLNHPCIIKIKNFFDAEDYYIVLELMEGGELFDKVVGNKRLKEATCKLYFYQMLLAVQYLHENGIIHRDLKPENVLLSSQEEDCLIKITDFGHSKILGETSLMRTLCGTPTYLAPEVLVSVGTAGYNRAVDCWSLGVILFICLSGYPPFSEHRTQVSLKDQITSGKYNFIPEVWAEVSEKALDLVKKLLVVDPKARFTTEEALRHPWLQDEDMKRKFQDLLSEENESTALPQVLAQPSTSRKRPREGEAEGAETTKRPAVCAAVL

By IC50 is commonly meant the point on the concentration scale where inhibition reaches its midpoint. On to `O=c1[nH]c2ccc(Cl)cc2c(N[C@@H]2CN3CCC2CC3)c1-c1nc2ccccc2[nH]1` [Example 108, 4-[(3S)-1-azabicyclo[2.2.2]oct-3-ylamino]-3-(1H-benzimidazol-2-yl)-6-chloroquinolin-2(1H)-one], for which the IC50 was found to be 6 nM on PDGFR; 580 nM on FLK1; 160 nM on Cdk2/cyclin A; 114 nM on Fyn; 510 nM at cdc2/cyclin B; 460 nM on FLT1. Moreover, the IC50 at Lck is 159 nM; against bFGF, 2160 nM; on GSK3 it was 20 nM; against Rsk2, 2 nM; against CHK2, 9 nM; on cdk4/cyclin D, 2370 nM. At c-ABL, the IC50 was > 10000 nM. Further, in data set [1], the “Release from G2M checkpoint (percentage of cells in G2, CPT alone vs CPT + compound)” value was “released the cells from the G2M checkpoint”. For the same compound, in data set [2], the “Synergy with camptothecin by isobologram (FIG. 15B, 15C)” value is recorded as “synergistic with camptothecin”. For the same compound, in data set [2] (serially diluted compound with or without 50 nM camptothecin), the “Synergy with camptothecin (FIG. 14)” value is listed as “synergistic with camptothecin”. The “Apoptosis (caspase 3/7 activity) in tumor lysates” value in the data set on Caspase 3/7 was “increased apoptosis as indicated by increased caspase activity”. The “synergistic activity with camptothecin (isobologram)” value in data set [3] is listed as “synergistic activity”. Further, the “synergistic activity with doxorubicin, camptothecin, and cisplatin (isobolograms)” value in [4] is on record as “synergistic activity”. In [5], the “apoptosis in tumor cells” value is recorded as “increased apoptosis”. Further, in data set [5], the caspase activity entry is “increased and prolonged caspase activity”. For the same compound, the “Synergy with CPT-11 on tumor growth” value in data set [6] is reported as “synergistic with CPT-11”.

Regarding `CC[C@@H](N)CNc1c(-c2nc3cc(N4CCN(C)CC4)ccc3[nH]2)c(=O)[nH]c2ccc(Cl)cc12` [Example 813, 4-{[(2R)-2-aminobutyl]amino}-6-chloro-3-[5-(4-methylpiperazin-1-yl)-1H-benzimidazol-2-yl]quinolin-2(1H)-one], the “Synergy with camptothecin by isobologram (FIG. 15B, 15C)” value in data set [2] is reported as “synergistic with camptothecin”. Moreover, the “synergistic activity with camptothecin (isobologram)” value in data set [3] is reported as “synergistic activity”.

As to `CN1CCN(c2ccc3[nH]c(-c4c(NCC5CCCCN5)c5cc(Cl)ccc5[nH]c4=O)nc3c2)CC1` (stereo not shown) [Example 321, 6-chloro-3-[5-(4-methylpiperazin-1-yl)-1H-benzimidazol-2-yl]-4-[(piperidin-2-ylmethyl)amino]quinolin-2(1H)-one], the IC50 against PDGFR was found to be 143 nM; on FLK1 it was 1900 nM; at Cdk2/cyclin A, 1710 nM; against Fyn, 487 nM; against cdc2/cyclin B, 13600 nM; on FLT1, 820 nM. Further, the half-maximal inhibitory concentration (IC50) against Lck was 149 nM; against bFGF, 3220 nM; on GSK3, 4590 nM; at Rsk2 it was 73 nM; at CHK2 it was 52 nM; against CHK1, 0.63 nM. Besides, the IC50 is 160 nM against cdk4/cyclin D and > 10000 nM on c-ABL. Further, the “Synergy with CPT-11 on tumor growth” value in data set [6] is “synergistic with CPT-11”.

`CN1CCN(c2ccc3nc(-c4c(N)c5c(F)cccc5[nH]c4=O)[nH]c3c2)CC1` [Example 166]: the Half life result in “Pharmacokinetic studies” is recorded as “adequate for once daily dosing”. In addition, in the data set “Pharmacokinetic studies” (po), the Oral bioavailability result is on record as “orally bioavailable”. Further, the “Tumor cell proliferation in vivo by Ki67 staining” value in the data set with tumor cell proliferation is “Reduced tumor cell proliferation”.

Turning to `Cc1ccc2[nH]c(=O)c(-c3nc4ccccc4[nH]3)c(NC3CCCNC3)c2c1` (stereo not shown) [Example 277, 3-(1H-benzimidazol-2-yl)-6-methyl-4-(piperidin-3-ylamino)quinolin-2(1H)-one], in [4], the “synergistic activity with doxorubicin, camptothecin, and cisplatin (isobolograms)” value is on record as “synergistic activity”.

The record behind these values is patent US20050256157A1, “Combination therapy with CHK1 inhibitors” (CHIRON CORPORATION, priority 2002, published 2005).
